Converted amounts (≈) assume the structure as drawn.
Key:
[1] = Half life in rat at 10 mg/kg; assay type: ADME, organism-based; parameters: dose 10 mg/kg; settings: in vivo
Escherichia coli = assay: microbe, parasite or virus in culture
Description: Antimicrobial activity against Escherichia coli after 16 to 20 hrs by 2-fold microbroth dilution method

Pseudomonas aeruginosa [2] = assay: Antimicrobial activity against Pseudomonas aeruginosa PA3919 with (delta(mexAB-OprM)delta(mexXY)delta(MexZ) phenotype after 16 to 20 hrs by 2-fold microbroth dilution method; assay type: functional
[3] = Thermodynamic solubility of the compound in thermosol at pH 3.0; assay type: physicochemical; settings: buffer, read-out: Therm_solubility
Pseudomonas aeruginosa [4] = assay: microbe, parasite or virus in culture
Description: Antimicrobial activity against Pseudomonas aeruginosa after 16 to 20 hrs by 2-fold microbroth dilution method

[5] = Clearance in rat at 10 mg/kg; assay type: ADME, organism-based; parameters: dose 10 mg/kg; settings: in vivo
[6] = Volume of distribution at steady state in rat at 10 mg/kg; assay type: ADME, organism-based; parameters: dose 10 mg/kg; settings: in vivo, read-out: Vdss
[7] = Fraction unbound in rat plasma relative to untreated control; assay type: ADME, cell-free
Acinetobacter sp. = assay: Antimicrobial activity against Acinetobacter sp. after 16 to 20 hrs by 2-fold microbroth dilution method; assay type: functional
Klebsiella pneumoniae = assay: microbe, parasite or virus in culture
Description: Antimicrobial activity against Klebsiella pneumoniae after 16 to 20 hrs by 2-fold microbroth dilution method

[8] = Fraction unbound in human plasma relative to untreated control; assay type: ADME, cell-free
Citrobacter freundii = assay: microbe, parasite or virus in culture
Description: Antimicrobial activity against Citrobacter freundii after 16 to 20 hrs by 2-fold microbroth dilution method

Klebsiella aerogenes = assay: microbe, parasite or virus in culture
Description: Antimicrobial activity against Enterobacter aerogenes after 16 to 20 hrs by 2-fold microbroth dilution method

Pseudomonas aeruginosa [9] = assay: Antimicrobial activity against wild type Pseudomonas aeruginosa PA01 after 16 to 20 hrs by 2-fold microbroth dilution method; assay type: functional
[10] = AUC in rat at 10 mg/kg; assay type: ADME, organism-based; parameters: dose 10 mg/kg; settings: plasma
[11] = Thermodynamic solubility of the compound in thermosol at pH 9; assay type: physicochemical; settings: buffer, read-out: Therm_solubility
[12] = Thermodynamic solubility of the compound in thermosol at pH 7.4; assay type: physicochemical; settings: buffer, read-out: Therm_solubility
Rattus norvegicus = assay: Free AUC in rat at 10 mg/kg; assay type: ADME, organism-based; parameters: dose 10 mg/kg; settings: in vivo

Row | Compound | half-life [1] | MIC90 (Escherichia coli) | MIC (Pseudomonas aeruginosa [2]) | solubility thermodynamic [3] | MIC90 (Pseudomonas aeruginosa [4]) | clearance [5] | Vd [6] | fraction unbound [7] | MIC90 (Acinetobacter sp.) | MIC90 (Klebsiella pneumoniae) | fraction unbound [8] | MIC90 (Citrobacter freundii) | MIC90 (Klebsiella aerogenes) | MIC (Pseudomonas aeruginosa [9]) | AUC [10] | solubility thermodynamic [11] | solubility thermodynamic [12] | fAUC (Rattus norvegicus)
1 | C[C@@](CCn1ccc(-c2ccc(-n3nccn3)cc2)cc1=O)(C(=O)NO)S(C)(=O)=O | 0.94 h | 0.06 µg/mL (≈ 0.139 µM) | 0.015 µg/mL (≈ 0.0348 µM) | 3.3 µg/mL (≈ 7.65 µM) | 1 µg/mL (≈ 2.32 µM) | 32 mL/min/kg | 0.92 L/kg | 0.13 | 64 µg/mL (≈ 148 µM) | 0.125 µg/mL (≈ 0.29 µM) | 0.25 | 0.125 µg/mL (≈ 0.29 µM) | 0.125 µg/mL (≈ 0.29 µM) | 0.25 µg/mL (≈ 0.579 µM) | 5200 ng·h/mL | 2740 µg/mL (≈ 6350 µM) | 9.2 µg/mL (≈ 21.3 µM) | 680 ng·h/mL
2 | C[C@@](CCn1ccc(-c2ccccc2)cc1=O)(C(=O)NO)S(C)(=O)=O | – | 8 µg/mL (≈ 22 µM) | 0.06 µg/mL (≈ 0.165 µM) | 410 µg/mL (≈ 1130 µM) | 2 µg/mL (≈ 5.49 µM) | – | – | 0.28 | 32 µg/mL (≈ 87.8 µM) | 16 µg/mL (≈ 43.9 µM) | 0.14 | 8 µg/mL (≈ 22 µM) | 16 µg/mL (≈ 43.9 µM) | 0.5 µg/mL (≈ 1.37 µM) | – | > 16000 µg/mL | 480 µg/mL (≈ 1320 µM) | –
3 | C[C@@](CCc1ccc(-c2ccccc2)cc1)(C(=O)NO)S(C)(=O)=O | 3.2 h | 2 µg/mL (≈ 5.76 µM) | 0.008 µg/mL (≈ 0.023 µM) | 7.3 µg/mL (≈ 21 µM) | 4 µg/mL (≈ 11.5 µM) | 57 mL/min/kg | 3.8 L/kg | 0.026 | 32 µg/mL (≈ 92.1 µM) | 16 µg/mL (≈ 46.1 µM) | 0.023 | 8 µg/mL (≈ 23 µM) | 4 µg/mL (≈ 11.5 µM) | 0.125 µg/mL (≈ 0.36 µM) | 2900 ng·h/mL | 260 µg/mL (≈ 748 µM) | 3.9 µg/mL (≈ 11.2 µM) | 75 ng·h/mL
4 | COc1ccc(-c2ccn(CC[C@](C)(C(=O)NO)S(C)(=O)=O)c(=O)c2)c(F)c1 | 1.4 h | 0.25 µg/mL (≈ 0.606 µM) | 0.008 µg/mL (≈ 0.0194 µM) | 82 µg/mL (≈ 199 µM) | 1 µg/mL (≈ 2.42 µM) | 72 mL/min/kg | 1.7 L/kg | 0.32 | > 64 µg/mL | 0.5 µg/mL (≈ 1.21 µM) | 0.31 | 0.5 µg/mL (≈ 1.21 µM) | 0.5 µg/mL (≈ 1.21 µM) | 0.125 µg/mL (≈ 0.303 µM) | 2300 ng·h/mL | > 14000 µg/mL | 130 µg/mL (≈ 315 µM) | 740 ng·h/mL

Reference: ChEMBL document CHEMBL2021790, “Pyridone methylsulfone hydroxamate LpxC inhibitors for the treatment of serious gram-negative infections” (J Med Chem, 2012)
